pKd: −log10 of the molar value.
Tests used:
[1] = target: T1, PBRM1(2) (Homo sapiens, UniProt Q86U86); test: Bromodomain assay % Ctrl determination PBRM1(2); conditions: lower numbers indicate a stronger binding
T1 construct: FALZ, PBRM1-BD2, BPRM1-BDS, TAF1-BD2, TAF1L-BD2; host or cells: T7 phage grown in E. coli host derived from BL21
Experimental: (§1) Compounds that bind the bromodomain prevent its binding to the immobilized ligand thus reducing the amount of protein captured. […] Hits are identified by measuring the amount of bromodomain captured in test versus control samples. Bromodomain assays for % Ctrl determination: T7 phage strains displaying bromodomains were grown in parallel in 24-well blocks in an E. coli host derived from the BL21 strain. E. coli were grown to log-phase and infected with T7 phage from a frozen stock (multiplicity of infection=0.4) and incubated with shaking at 32° C. until lysis (90-150 minutes). The lysates were centrifuged (5,000×g) and filtered (0.2 μm) to remove cell debris. […] The liganded beads were blocked with excess biotin and washed with blocking buffer (SeaBlock (Pierce), 1% BSA, 0.05% Tween 20, 1 mM DTT) to remove unbound ligand and to reduce non-specific phage binding. […] Test compounds were prepared as 1000× stocks in 100% DMSO and subsequently diluted 1:25 in monoethylene glycol (MEG). The compounds were then diluted directly into the assays such that the final concentrations of DMSO and MEG were 0.1% and 2.4%, respectively. All reactions were performed in polypropylene 384-well plates in a final volume of 0.02 ml. […] The bromodomain concentration in the eluates was measured by qPCR. […]

[2] = target: T2, BRD2(1) (Homo sapiens, UniProt P25440); test: Bromodomain assay % Ctrl determination BRD2(1); conditions: lower numbers indicate a stronger binding
T2 construct: T7 phage strains displaying bromodomains were grown in parallel; made in house; host or cells: T7 phage grown in an E. coli host derived from the BL21 strain
Experimental: as §1

[3] = target: T3, CREBBP (Homo sapiens, UniProt Q92793); test: Bromodomain assay % Ctrl determination CREBBP; conditions: lower numbers indicate a stronger binding
T3 construct: T7 phage strains displaying bromodomains were grown; host or cells: T7 phage in E. coli derived from BL21
Experimental: as §1

[4] = target: T4, ATAD2A (Homo sapiens, UniProt Q6PL18); test: Bromodomain assay % Ctrl determination ATAD2A; conditions: lower numbers indicate a stronger binding
T4 construct: T7 phage strains displaying bromodomains were grown in parallel; made in house; host or cells: T7 phage grown in an E. coli host derived from the BL21 strain
Experimental: as §1

[5] = tested on: HL-60 cells; test: GI50 in a culture of HL-60 cells; type: cell-based; conditions: concentration required to reduce the population of a culture of HL-60 cells by 50%
[6] = target: T5, BRD2(2) (Homo sapiens, UniProt P25440); test: Bromodomain assay % Ctrl determination BRD2(2); conditions: lower numbers indicate a stronger binding
T5 construct: T7 phage strains displaying bromodomains were grown in parallel; made in house; host or cells: T7 phage grown in an E. coli host derived from the BL21 strain
Experimental: as §1

[7] = target: T6, SMARCA2 (Homo sapiens, UniProt P51531); test: Bromodomain assay % Ctrl determination SMARCA2; conditions: lower numbers indicate a stronger binding
T6 construct: T7 phage strains displaying bromodomains were grown in parallel; host or cells: T7 phage grown in E. coli host derived from BL21
Experimental: as §1

[8] = target: T7, TRIM24(PHD, Bromo) (Homo sapiens, UniProt O15164); test: Bromodomain assay % Ctrl determination TRIM24(PHD, Bromo); conditions: lower numbers indicate a stronger binding
T7 construct: T7 phage strains displaying bromodomains were grown in parallel; host or cells: T7 phage grown in E. coli host derived from BL21
Experimental: as §1

[9] = target: T8, WRD9(2) (Homo sapiens, UniProt Q9NSI6); test: BROMOscan Kd determination WRD9(2); type: binding
T8 construct: T7 phage strains displaying bromodomains were grown in parallel; host or cells: T7 phage grown in E. coli host derived from BL21
Experimental: (§2) Bromodomain profiling was carried out on the basis of BROMOscan™. This platform accounted for the indirect determination of the dissociation constants between 19 bromodomains and the compound of formula (13), by binding competition against a reference immobilized ligand. Compounds that bind the bromodomain prevent its binding to the immobilized ligand thus reducing the amount of protein captured. […] Hits are identified by measuring the amount of bromodomain captured in test versus control samples. Bromodomain assays for Kd determination: T7 phage strains displaying bromodomains were grown in parallel in 24-well blocks in an E. coli host derived from the BL21 strain. E. coli were grown to log-phase and infected with T7 phage from a frozen stock (multiplicity of infection=0.4) and incubated with shaking at 32° C. until lysis (90-150 minutes). The lysates were centrifuged (5,000×g) and filtered (0.2 μm) to remove cell debris. […] Kds were determined using an 11-point 3-fold compound dilution series with one DMSO control point. […] The bromodomain concentration in the eluates was measured by qPCR. […] Most Kds were determined using a compound top concentration=10,000 nM. […] Binding Constants (Kds): Binding constants (Kds) were calculated with a standard dose-response curve using the Hill equation: The Hill Slope was set to −1. […]

[10] = target: T7, TRIM24(PHD, Bromo); test: BROMOscan Kd determination TRIM24(PHD, Bromo.); type: binding
Experimental: as §2

[11] = target: T4, ATAD2A; test: BROMOscan Kd determination ATAD2A; type: binding
Experimental: as §2

[12] = target: T9, PBRM1(5) (Homo sapiens, UniProt Q86U86); test: BROMOscan Kd determination PBRM1(5); type: binding
T9 construct: T7 phage strains displaying bromodomains were grown in parallel; host or cells: T7 phage grown in E. coli host derived from BL21
Experimental: as §2

T7 sequence (O15164 824-1006 limits assumed): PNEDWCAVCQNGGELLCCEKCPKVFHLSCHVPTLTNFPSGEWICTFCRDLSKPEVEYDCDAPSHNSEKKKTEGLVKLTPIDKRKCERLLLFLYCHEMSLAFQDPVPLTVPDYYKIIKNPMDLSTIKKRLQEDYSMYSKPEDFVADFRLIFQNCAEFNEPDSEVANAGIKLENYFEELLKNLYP
T4 sequence (Q6PL18 980-1092 limits assumed): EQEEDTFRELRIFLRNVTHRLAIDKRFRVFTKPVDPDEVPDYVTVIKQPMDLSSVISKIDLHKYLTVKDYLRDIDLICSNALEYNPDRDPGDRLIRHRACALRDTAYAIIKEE
T5 sequence (P25440 344-453 limits assumed): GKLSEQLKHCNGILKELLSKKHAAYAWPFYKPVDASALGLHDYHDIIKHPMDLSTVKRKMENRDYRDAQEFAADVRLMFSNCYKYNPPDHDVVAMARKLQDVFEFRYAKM
T2 sequence (P25440 74-180 limits assumed): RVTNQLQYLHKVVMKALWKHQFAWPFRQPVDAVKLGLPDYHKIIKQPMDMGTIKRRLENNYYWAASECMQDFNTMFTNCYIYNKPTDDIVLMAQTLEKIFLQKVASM
T6 sequence (P51531 1378-1506 limits assumed): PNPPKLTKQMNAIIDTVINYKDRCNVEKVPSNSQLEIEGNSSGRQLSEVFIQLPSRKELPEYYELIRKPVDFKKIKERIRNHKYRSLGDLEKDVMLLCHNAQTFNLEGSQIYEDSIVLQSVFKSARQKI
T8 sequence (Q9NSI6 1313-1418 limits assumed): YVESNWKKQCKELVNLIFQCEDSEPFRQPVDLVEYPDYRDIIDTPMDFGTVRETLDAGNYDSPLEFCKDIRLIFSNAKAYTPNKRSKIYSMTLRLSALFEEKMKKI
T3 sequence (Q92793 1085-1192 limits assumed): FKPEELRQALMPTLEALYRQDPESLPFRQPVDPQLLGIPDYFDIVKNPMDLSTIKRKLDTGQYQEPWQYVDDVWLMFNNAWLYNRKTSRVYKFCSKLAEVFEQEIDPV
T1 sequence (Q86U86 177-287 limits assumed): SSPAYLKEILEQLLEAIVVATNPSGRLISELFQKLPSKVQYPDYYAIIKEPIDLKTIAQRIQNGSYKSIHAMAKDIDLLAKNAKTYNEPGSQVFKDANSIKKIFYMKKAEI
T9 sequence (Q86U86 653-763 limits assumed): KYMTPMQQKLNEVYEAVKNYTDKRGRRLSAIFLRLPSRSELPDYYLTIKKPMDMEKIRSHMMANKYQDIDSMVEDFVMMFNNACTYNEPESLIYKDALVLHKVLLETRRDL

Q: What does the source list for COc1ccc(S(=O)(=O)N2CCOCC2)cc1NC(=O)c1[nH]c(C)c2c1CCCCC2=O [Compound 13, N-(2-methoxy-5-(morpholinosulfonyl)phenyl)-3-methyl-4-oxo-2,4,5,6,7,8-hexahydrocyclohepta[c]pyrrole-1-carboxamide]?
A: % Ctrl @ 10 000 nM PBRM1(2) [1]: 75 % Ctrl; % Ctrl @ 10 000 nM BRD2(1) [2]: 0 % Ctrl; % Ctrl @ 10 000 nM CREBBP [3]: 4.7 % Ctrl; % Ctrl @ 10 000 nM ATAD2A [4]: 94 % Ctrl; GI50HL60 [5]: 0.17 µM; % Ctrl @ 10 000 nM BRD2(2) [6]: 0.1 % Ctrl; % Ctrl @ 10 000 nM SMARCA2 [7]: 83 % Ctrl; % Ctrl @ 10 000 nM TRIM24(PHD, Bromo) [8]: 82 % Ctrl

Q: Which results are given for Cc1[nH]c(-c2cc(N)ccc2Cl)c2c1C(=O)CCCC2 [Compound 23]?
A: pKd [9]: < 5.00; pKd [10]: 5.28; pKd [11]: < 5.00; pKd [12]: 5.42

Source: patent US20220055989A1, “CONDENSED PYRROLES AS NOVEL BROMODOMAIN INHIBITORS” (ALBERT LUDWING UNIVERSITÄT FREIBURG, priority 2018, published 2022)
